Results reported in patent US20240173372A1 (IMDpharm Inc., priority 2021, published 2024).
Converted amounts (≈) assume the structure as drawn.

Tested on: House Ear Institute-Organ of Corti 1 (HEI-OC1) auditory hair cell
Test: Apoptosis inhibitory effect on auditory cell line treated with hydrogen peroxide (MTT analysis)
Type: cell-based, mice
Details: Mus musculus, HEI-OC1, 100 μM hydrogen peroxide, read-out: EC50 (apoptosis inhibitory effect, hair cells)
Experimental: House Ear Institute-Organ of Corti 1 (HEI-OC1), an auditory hair cell derived from the Organ of Corti which is the auditory generation organ in mice, was cultured in an incubator at 33° C. in the presence of 10% CO2 using DMEM (high-glucose Dulbecco's Eagle's medium, Sigma-Aldrich Co., St. Louis, USA) culture including 10% fetal bovine serum (FBS; WELGENE Inc., Gyeongsangbuk-do, Korea) and 50 U/mL INF-γ (Peprotech Inc., Seoul, Korea) without addition of antibiotics. In order to generate reactive oxygen species (ROS) caused by oxidative stress that occurs in the process of inducing noise induced hearing loss, cell lines with noise induced hearing loss were established by treating hydrogen peroxide.

`COc1cccc(CCc2ccccc2OCC(CN(C)C)OC(=O)CCC(=O)O)c1` (single isomer, unassigned; (-)) [sarpogrelate, (−)-4-[1-dimethylamino-3-[2-[2-(3-methoxyphenyl)ethyl]phenoxy]propan-2-yl]oxy-4-oxobutanoic acid] gave an EC50 of 26.4 µg/mL (≈ 61.5 µM).
